# Source: ChEMBL document CHEMBL1201862, “PubChem BioAssay data set” (2004)
#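 Test compounds were applied to cells in 96-well plates for 48 hours at 5 doses. At the GI50, growth is halved.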 Activity calls are given as the source filed them. Rule as the data show it: active = GI50 up to about 1.1 µM and inactive = higher.
# Legend:
# Experiment in all cases: NCI tumour cell line growth inhibition, 48 h
# CCRF-CEM = test system: CCRF-CEM
# NCI-H226 = test system: NCI-H226
# 786-0 = test system: 786-0
# SK-MEL-28 = test system: SK-MEL-28
# SK-MEL-5 = test system: SK-MEL-5
# LOX IMVI = test system: LOX IMVI
# SN12C = test system: SN12C
# XF498 = test system: XF498
# Malme-3M = test system: Malme-3M
# EKVX = test system: EKVX
# SK-OV-3 = test system: SK-OV-3
# UO-31 = test system: UO-31
# DU-145 = test system: DU-145
# BT-549 = test system: BT-549
# HOP-92 = test system: HOP-92
# OVCAR-8 = test system: OVCAR-8
# HL-60 = test system: HL-60
# IGROV-1 = test system: IGROV-1
# A498 = test system: A498
# RXF 393 = test system: RXF 393
# OVCAR-3 = test system: OVCAR-3
# Hs-578T = test system: Hs-578T
# MDA-MB-435 = test system: MDA-MB-435
# UACC-62 = test system: UACC-62
# SF-268 = test system: SF-268
# SW-620 = test system: SW-620
# U-251 = test system: U-251
# PC-3 = test system: PC-3
# M14 = test system: M14
# HT-29 = test system: HT-29
# TK-10 = test system: TK-10
# LXFL 529 = test system: LXFL 529
# CAKI-1 = test system: CAKI-1
# SR = test system: SR
# HCT-15 = test system: HCT-15
# DMS-114 = test system: DMS-114
# SNB-19 = test system: SNB-19
# MDA-MB-231 = test system: MDA-MB-231
# K562 = test system: K562
# HOP-62 = test system: HOP-62
# NCI-H522 = test system: NCI-H522
# SF-539 = test system: SF-539
# RPMI-8226 = test system: RPMI-8226
# KM-20L2 = test system: KM-20L2
# HOP-18 = test system: HOP-18
# UACC-257 = test system: UACC-257
# MDA-N = test system: MDA-N
# OVCAR-5 = test system: OVCAR-5
# HCC 2998 = test system: HCC 2998
# SNB-75 = test system: SNB-75
# M19-MEL = test system: M19-MEL
# COLO 205 = test system: COLO 205
# NCI-H23 = test system: NCI-H23
# MOLT-4 = test system: MOLT-4
# HCT-116 = test system: HCT-116
# OVCAR-4 = test system: OVCAR-4
# DMS-273 = test system: DMS-273
# ACHN = test system: ACHN
# NCI-H460 = test system: NCI-H460
# SNB-78 = test system: SNB-78
# A549 = test system: A549
# DLD-1 = test system: DLD-1
# KM12 = test system: KM12
# SK-MEL-2 = test system: SK-MEL-2
# T47D = test system: T47D
# SF-295 = test system: SF-295
# NCI/ADR-RES = test system: NCI/ADR-RES
structure (smiles),measurement,setting,value
C=C(CN(C)C)C(=O)c1ccccc1OC,GI50,CCRF-CEM,2.51 µM (inactive)
same,GI50,NCI-H226,37.2 µM (inactive)
same,GI50,786-0,13.9 µM (inactive)
same,GI50,SK-MEL-28,20.2 µM (inactive)
same,GI50,SK-MEL-5,17.1 µM (inactive)
same,GI50,LOX IMVI,13.8 µM (inactive)
same,GI50,SN12C,18.9 µM (inactive)
same,GI50,XF498,17.9 µM (inactive)
same,GI50,Malme-3M,7.66 µM (inactive)
same,GI50,EKVX,25.8 µM (inactive)
same,GI50,SK-OV-3,47.5 µM (inactive)
same,GI50,UO-31,16.4 µM (inactive)
same,GI50,DU-145,> 45 µM (inactive)
same,GI50,BT-549,17.4 µM (inactive)
same,GI50,HOP-92,14.7 µM (inactive)
same,GI50,OVCAR-8,21.6 µM (inactive)
same,GI50,HL-60,3.23 µM (inactive)
same,GI50,IGROV-1,24.4 µM (inactive)
same,GI50,A498,28.4 µM (inactive)
same,GI50,RXF 393,7.85 µM (inactive)
same,GI50,OVCAR-3,16 µM (inactive)
same,GI50,Hs-578T,20.7 µM (inactive)
same,GI50,MDA-MB-435,19.5 µM (inactive)
same,GI50,UACC-62,21 µM (inactive)
same,GI50,SF-268,25.2 µM (inactive)
same,GI50,SW-620,4.31 µM (inactive)
same,GI50,U-251,24.5 µM (inactive)
same,GI50,PC-3,17.5 µM (inactive)
same,GI50,M14,12 µM (inactive)
same,GI50,HT-29,20.5 µM (inactive)
same,GI50,TK-10,16.1 µM (inactive)
same,GI50,LXFL 529,3.68 µM (inactive)
same,GI50,CAKI-1,9.82 µM (inactive)
same,GI50,SR,10.2 µM (inactive)
same,GI50,HCT-15,15.9 µM
same,GI50,DMS-114,21.1 µM (inactive)
same,GI50,SNB-19,44.4 µM (inactive)
same,GI50,MDA-MB-231,14.4 µM (inactive)
same,GI50,K562,4.35 µM (inactive)
same,GI50,HOP-62,> 52.8 µM (inactive)
same,GI50,NCI-H522,2.04 µM (inactive)
same,GI50,SF-539,15.6 µM (inactive)
same,GI50,RPMI-8226,5.28 µM (inactive)
same,GI50,KM-20L2,26.2 µM (inactive)
same,GI50,HOP-18,6.08 µM (inactive)
same,GI50,UACC-257,15.6 µM (inactive)
same,GI50,MDA-N,18.2 µM (inactive)
same,GI50,OVCAR-5,19.1 µM (inactive)
same,GI50,HCC 2998,34.6 µM (inactive)
same,GI50,SNB-75,27.2 µM (inactive)
same,GI50,M19-MEL,16.3 µM (inactive)
same,GI50,COLO 205,3.53 µM (inactive)
same,GI50,NCI-H23,17.9 µM (inactive)
same,GI50,MOLT-4,2.46 µM (inactive)
same,GI50,HCT-116,15.6 µM (inactive)
same,GI50,OVCAR-4,20.6 µM (inactive)
same,GI50,DMS-273,17.2 µM (inactive)
same,GI50,ACHN,14.5 µM (inactive)
same,GI50,NCI-H460,38.1 µM (inactive)
same,GI50,SNB-78,25.6 µM (inactive)
same,GI50,A549,> 67.8 µM (inactive)
same,GI50,DLD-1,4.49 µM (inactive)
same,GI50,KM12,25.3 µM (inactive)
same,GI50,SK-MEL-2,14.4 µM (inactive)
same,GI50,T47D,15 µM (inactive)
same,GI50,SF-295,> 56.9 µM (inactive)
same,GI50,NCI/ADR-RES,20.7 µM (inactive)
COC1=C(C(=O)OC(C)(C)C)[C@]2(C)C(C(=O)OC(C)(C)C)C(OC)=C(C(=O)OC(C)(C)C)[C@]2(C)C1C(=O)OC(C)(C)C (some centres undefined),GI50,CCRF-CEM,73.8 µM (inactive)
same,GI50,NCI-H226,> 100 µM (inactive)
same,GI50,786-0,> 100 µM (inactive)
same,GI50,SK-MEL-5,35.1 µM (inactive)
same,GI50,LOX IMVI,> 100 µM (inactive)
same,GI50,SN12C,> 100 µM (inactive)
same,GI50,XF498,> 100 µM (inactive)
same,GI50,Malme-3M,> 100 µM (inactive)
same,GI50,EKVX,> 100 µM (inactive)
same,GI50,SK-OV-3,> 100 µM (inactive)
same,GI50,UO-31,85.3 µM (inactive)
same,GI50,HOP-92,32.9 µM (inactive)
same,GI50,OVCAR-8,> 100 µM (inactive)
same,GI50,HL-60,24.9 µM (inactive)
same,GI50,IGROV-1,> 100 µM (inactive)
same,GI50,A498,> 100 µM (inactive)
same,GI50,RXF 393,> 100 µM (inactive)
same,GI50,OVCAR-3,29.3 µM (inactive)
same,GI50,UACC-62,> 100 µM (inactive)
same,GI50,SF-268,> 100 µM (inactive)
same,GI50,SW-620,> 100 µM (inactive)
same,GI50,U-251,> 100 µM (inactive)
same,GI50,M14,46.9 µM (inactive)
same,GI50,HT-29,63.2 µM (inactive)
same,GI50,TK-10,> 100 µM (inactive)
same,GI50,LXFL 529,> 100 µM (inactive)
same,GI50,CAKI-1,71.3 µM (inactive)
same,GI50,SR,33.6 µM (inactive)
same,GI50,HCT-15,53 µM
same,GI50,DMS-114,53.1 µM (inactive)
same,GI50,SNB-19,> 100 µM (inactive)
same,GI50,K562,37.5 µM (inactive)
same,GI50,HOP-62,> 100 µM (inactive)
same,GI50,NCI-H522,43.8 µM (inactive)
same,GI50,SF-539,> 100 µM (inactive)
same,GI50,RPMI-8226,31.3 µM (inactive)
same,GI50,KM-20L2,> 100 µM (inactive)
same,GI50,HOP-18,> 100 µM (inactive)
same,GI50,UACC-257,28.2 µM (inactive)
same,GI50,OVCAR-5,> 100 µM (inactive)
same,GI50,HCC 2998,> 100 µM (inactive)
same,GI50,SNB-75,> 100 µM (inactive)
same,GI50,M19-MEL,> 100 µM (inactive)
same,GI50,COLO 205,60.4 µM (inactive)
same,GI50,NCI-H23,> 100 µM (inactive)
same,GI50,MOLT-4,33.9 µM (inactive)
same,GI50,HCT-116,96.4 µM (inactive)
same,GI50,OVCAR-4,97.7 µM (inactive)
same,GI50,DMS-273,97.7 µM (inactive)
same,GI50,ACHN,69.3 µM (inactive)
same,GI50,NCI-H460,78.2 µM (inactive)
same,GI50,SNB-78,> 100 µM (inactive)
same,GI50,A549,> 100 µM (inactive)
same,GI50,DLD-1,83.9 µM (inactive)
same,GI50,KM12,79.1 µM (inactive)
same,GI50,SK-MEL-2,> 100 µM (inactive)
same,GI50,SF-295,83.4 µM (inactive)
